These results are taken from patent US20230104936A1, “TRPML MODULATORS” (Casma Therapeutics, Inc., priority 2019, published 2023).

Structures can show the parent of a compound that is named as a salt.

This assay relates to TFEB. In words: TFEB nuclear translocation assay, HeLa wt cells. It is filed as cell-based. Particulars: Homo sapiens, HeLa, 2 h, 2 hrs compound treatment, Table 1 does not say HeLa wt or TRPML1 KO. In outline:
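Using 20× epifluorescence of fixed, anti-TFEB-stained HeLa wt cells treated 2 hrs with compound, nuclear versus perinuclear ring intensity was quantified over four fields per well, yielding AC50 values.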
For orientation: AC50 means the concentration giving half of the maximal activity seen. Low values mean greater potency, high ones weaker potency. `CN(C)S(=O)(=O)c1ccc(S(=O)(=O)Nc2ccccc2N2CCC(O)(c3ccncc3F)CC2)cc1` [Compound A-401, N4-{2-[4-(3-fluoropyridin-4-yl)-4-hydroxypiperidin-1-yl]phenyl}-N1,N1-dimethylbenzene-1,4-disulfonamide]: the AC50 is ≥ 10 µM.
In turn, `COCC1(C)CCN(c2ccccc2NS(=O)(=O)c2ccc3c(c2)COC3)CC1` [Compound A-645, N-{2-[4-(methoxymethyl)-4-methylpiperidin-1-yl]phenyl}-1,3-dihydro-2-benzofuran-5-sulfonamide] came in with an AC50 of 8.01 to 9.99 µM.
With `CN(C)S(=O)(=O)c1ccc(S(=O)(=O)Nc2ccccc2C#Cc2ccc(Cl)cc2F)cc1` [Compound A-3, N1-(2-((4-chloro-2-fluorophenyl)ethynyl)phenyl)-N4,N4-dimethylbenzene-1,4-disulfonamide] the figure was ≤ 2 µM.
For `O=S(=O)(Nc1ccccc1N1CCC(c2ccc(Cl)cc2F)CC1)c1cc(F)ccc1F` [Compound A-82, N-{2-[4-(4-chloro-2-fluorophenyl)piperidin-1-yl]phenyl}-2,5-difluorobenzene-1-sulfonamide], the AC50 was ≥ 10 µM.
To `CP(C)(=O)c1ccc(S(=O)(=O)Nc2ccccc2N2CCC(c3c(F)cccc3F)CC2)cc1` [Compound A-177, N-{2-[4-(2,6-difluorophenyl)piperidin-1-yl]phenyl}-4-(dimethylphosphoryl)benzene-1-sulfonamide] belongs ≥ 10 µM.
`CN(C)S(=O)(=O)c1ccc(S(=O)(=O)Nc2ccccc2N2CCN(C(=O)C3CC3(C)C)CC2)cc1` (stereo not drawn) [Compound A-427, N4-{2-[4-(2,2-dimethylcyclopropanecarbonyl)piperazin-1-yl]phenyl}-N1,N1-dimethylbenzene-1,4-disulfonamide] showed an AC50 of 2.01 to 8 µM.
As to `COCC1(C)CCN(c2ccccc2NS(=O)(=O)c2ccc(S(=O)(=O)N3CCC3)cc2)CC1` [Compound A-736, 4-(azetidine-1-sulfonyl)-N-{2-[4-(methoxymethyl)-4-methylpiperidin-1-yl]phenyl}benzene-1-sulfonamide], the half-maximal activity concentration (AC50) was ≤ 2 µM.
With `Cc1ccc(S(=O)(=O)n2cc3c(N4CCN(C5CCCCC5)CC4)cccc3n2)cc1` [Compound A-561] the figure was 2.01 to 8 µM; with `CN(C)S(=O)(=O)c1ccc(S(=O)(=O)C(c2cccc(F)c2N2CCCCC2)C2CC2)cc1` (single isomer, unassigned) [Compound A-982, 4-((cyclopropyl(3-fluoro-2-(piperidin-1-yl)phenyl)methyl)sulfonyl)-N,N-dimethylbenzenesulfonamide], ≤ 2 µM.
With `CN(C)S(=O)(=O)c1ccc(S(=O)(=O)Nc2cccc(F)c2N2CCC(CN3CCCC(F)(F)C3)CC2)cc1` [Compound A-773, N4-(2-{4-[(3,3-difluoropiperidin-1-yl)methyl]piperidin-1-yl}-3-fluorophenyl)-N1,N1-dimethylbenzene-1,4-disulfonamide] the figure was ≤ 2 µM; with `CCN1CCN(c2c(Cl)cccc2NS(=O)(=O)c2ccc3c(c2)CCC3)CC1` [Compound A-300, N-[3-chloro-2-(4-ethylpiperazin-1-yl)phenyl]-2,3-dihydro-1H-indene-5-sulfonamide hydrochloride], 2.01 to 8 µM.
As for `CC(C)(C)C(=O)N1CCN(c2ccccc2NS(=O)(=O)c2ccc(C(C)(C)C)cc2)CC1` [Compound A-516, 4-tert-butyl-N-{2-[4-(2,2-dimethylpropanoyl)piperazin-1-yl]phenyl}benzene-1-sulfonamide], the AC50 lay in the range of 2.01 to 8 µM.
With `CN(C)S(=O)(=O)c1ccc(S(=O)(=O)Nc2ccccc2N2C3CCC2CN(C(=O)C(C)(C)C)C3)cc1` [Compound A-354, N4-{2-[3-(2,2-dimethylpropanoyl)-3,8-diazabicyclo[3.2.1]octan-8-yl]phenyl}-N1,N1-dimethylbenzene-1,4-disulfonamide] the figure was ≥ 10 µM; with `CN(C)S(=O)(=O)c1ccc(S(=O)(=O)Nc2ccccc2N2CCC(C3(O)CC3)CC2)cc1` [Compound A-433, N4-{2-[4-(1-hydroxycyclopropyl)piperidin-1-yl]phenyl}-N1,N1-dimethylbenzene-1,4-disulfonamide], 2.01 to 8 µM; with `O=S(=O)(Nc1ccccc1N1CCC(c2ccc(Cl)cc2F)CC1)c1ccccc1` [Compound A-42, N-{2-[4-(4-chloro-2-fluorophenyl)piperidin-1-yl]phenyl}benzenesulfonamide], ≥ 10 µM.
To `CC(c1cccnc1)N1CCN(c2ccccc2NS(=O)(=O)c2ccc(S(=O)(=O)N(C)C)cc2)CC1` (stereo not drawn) [Compound A-505, N1,N1-dimethyl-N4-(2-{4-[1-(pyridin-3-yl)ethyl]piperazin-1-yl}phenyl)benzene-1,4-disulfonamide] belongs 2.01 to 8 µM; to `C[C@@H]1COC[C@@H](C)N1CC1CCN(c2c(F)cccc2NS(=O)(=O)c2ccc(S(=N)(=O)N(C)C)cc2)CC1` (stereo partly drawn) [Compound A-835, N-(2-(4-(((3S,5S)-3,5-dimethylmorpholino)methyl)piperidin-1-yl)-3-fluorophenyl)-4-(N,N-dimethylsulfamidimidoyl)benzenesulfonamide], ≤ 2 µM; to `CC(c1ccccc1N1CCC(c2c(F)cccc2F)CC1)S(=O)(=O)c1ccc(S(=O)(=O)N(C)C)cc1` (stereo not drawn) [Compound A-254, 4-((1-(2-(4-(2,6-difluorophenyl)piperidin-1-yl)phenyl)ethyl)sulfonyl)-N,N-dimethylbenzenesulfonamide], ≤ 2 µM.
With `O=S(=O)(Nc1cccnc1N1CCN(c2ncc(Cl)cc2F)CC1)c1ccc(OC(F)(F)F)cc1` [Compound A-116, N-{2-[4-(5-chloro-3-fluoropyridin-2-yl)piperazin-1-yl]pyridin-3-yl}-4-(trifluoromethoxy)benzene-1-sulfonamide] the figure was ≥ 10 µM; with `O=S(=O)(Nc1ccccc1N1CCCC1)c1ccc2c(c1)OCCCO2` [Compound A-372, N-[2-(pyrrolidin-1-yl)phenyl]-3,4-dihydro-2H-1,5-benzodioxepine-7-sulfonamide], 2.01 to 8 µM; with `COc1ccc(S(=O)(=O)Nc2ccccc2-c2ncc(F)cc2F)cc1` [Compound A-180, N-(2-(3,5-difluoropyridin-2-yl)phenyl)-4-methoxybenzenesulfonamide], 8.01 to 9.99 µM.
Take `CC(C)(C)C(=O)N1CCN(c2ccccc2NS(=O)(=O)c2ccc(C(C)(C)C#N)cc2)CC1` [Compound A-535, 4-(1-cyano-1-methylethyl)-N-{2-[4-(2,2-dimethylpropanoyl)piperazin-1-yl]phenyl}benzene-1-sulfonamide]: the AC50 was 2.01 to 8 µM.
To `CC1COCC(C)N1CC1CCN(c2c(F)cccc2NS(=O)(=O)c2ccc(S(=O)(=O)C(F)F)cc2)CC1` (stereo not drawn) [Compound A-866, 4-difluoromethanesulfonyl-N-(2-{4-[(3,5-dimethylmorpholin-4-yl)methyl]piperidin-1-yl}-3-fluorophenyl)benzene-1-sulfonamide] belongs ≤ 2 µM; to `CN(C)S(=O)(=O)c1ccc(S(=O)(=O)Nc2nn(C)cc2C2CCN(c3ccccc3F)CC2)cc1` [Compound A-40, N1-(4-(1-(2-fluorophenyl)piperidin-4-yl)-1-methyl-1H-pyrazol-3-yl)-N4,N4-dimethylbenzene-1,4-disulfonamide], 2.01 to 8 µM; to `C[C@@H]1CN(c2nn(S(=O)(=O)c3ccc(S(=O)(=O)N(C)C)cc3)c3ccccc23)C[C@H](C)C1(F)F` [Compound A-968, 4-({3-[(3R,5S)-4,4-difluoro-3,5-dimethylpiperidin-1-yl]-1H-indazol-1-yl}sulfonyl)-N,N-dimethylbenzene-1-sulfonamide], ≤ 2 µM.
To `CN(C)S(=O)(=O)c1ccc(S(=O)(=O)Nc2ccccc2N2CCC(O)(C(C)(C)C)CC2)cc1` [Compound A-471, N1-(2-(4-(tert-butyl)-4-hydroxypiperidin-1-yl)phenyl)-N4,N4-dimethylbenzene-1,4-disulfonamide] belongs ≤ 2 µM.
For the compound `CC1(C)CC2(CCN(c3ccccc3NS(=O)(=O)C3=Cc4ccccc4CC3)CC2)CO1` [Compound A-676, N-(2-{3,3-dimethyl-2-oxa-8-azaspiro[4.5]decan-8-yl}phenyl)-3,4-dihydronaphthalene-2-sulfonamide], the AC50 is 2.01 to 8 µM.
With `Cc1ccc(S(=O)(=O)Nc2ccccc2N2CCC(c3ccc(Cl)cc3F)CC2)cc1` [Compound A-72, N-{2-[4-(4-chloro-2-fluorophenyl)piperidin-1-yl]phenyl}-4-methylbenzene-1-sulfonamide] the figure was ≤ 2 µM; with `CCC1(OC)CCN(c2ccccc2NS(=O)(=O)c2ccc(S(=O)(=O)N(C)C)cc2)CC1` [Compound A-546, N4-[2-(4-ethyl-4-methoxypiperidin-1-yl)phenyl]-N1,N1-dimethylbenzene-1,4-disulfonamide], ≤ 2 µM.
To `COCCN1CC2(CCN(c3ccccc3NS(=O)(=O)c3ccc(S(C)(=O)=O)cc3)CC2)c2ccc(F)cc21` [Compound A-466, N-{2-[6-fluoro-1-(2-methoxyethyl)-1,2-dihydrospiro[indole-3,4′-piperidin]-1′-yl]phenyl}-4-methanesulfonylbenzene-1-sulfonamide] belongs ≤ 2 µM.
With `CC(C)(C)C(=O)N1CCN(c2ccccc2NS(=O)(=O)Cc2cccc3cccnc23)CC1` [Compound A-565, N-{2-[4-(2,2-dimethylpropanoyl)piperazin-1-yl]phenyl}-1-(quinolin-8-yl)methanesulfonamide] the figure was 8.01 to 9.99 µM.
As to `CN(C)S(=O)(=O)c1ccc(S(=O)(=O)Nc2ccccc2N2CCC(CNC(C)(C)C)CC2)cc1` [Compound A-415, N4-(2-{4-[(tert-butylamino)methyl]piperidin-1-yl}phenyl)-N1,N1-dimethylbenzene-1,4-disulfonamide], the AC50 was ≤ 2 µM.
To `Cc1cc(NS(=O)(=O)c2ccc(S(=O)(=O)N(C)C)cc2)n(C2CCCCC2)c(=O)c1` [Compound A-934, N4-(1-cyclohexyl-4-methyl-6-oxo-1,6-dihydropyridin-2-yl)-N1,N1-dimethylbenzene-1,4-disulfonamide] belongs ≥ 10 µM.
